Tested on: monoclonal antibody specific against catecholamine metabolites containing 3-methoxy, 4-hydroxy group therein
Experiment: standard curves for fractionation and determination of ℓ-VMA and HVA in competitive EIA
Assay type: binding, BALB/c mice
Details: pH 8.0, amount of less than 1 µM
Text: Then, VMA-SBA adsorbed onto the solid phase by the action other than the covalent bond was washed with 0.1 N acetic acid containing 0.1% (w/v) SDS.

SMILES | reaction in competitive EIA
COc1cc(C(O)C(=O)O)ccc1O (single isomer, unassigned) [ℓ-VMA] | did not react
COc1cc(C(O)C(=O)O)ccc1O (centres unmarked) [Vanillylmandelic acid] | reacted only

From patent EP0352817A2, “Monoclonal antibody to catecholamine metabolite and quantitative assay for catecholamine metabolite” (ORIENTAL YEAST CO., LTD., priority 1988, dated 1990)
